Test results published in patent publication US6677371B1, “4-oxybenzopyran derivative” (Nissan Chemical Industries, Ltd., priority 1999, dated 2004).

SMILES: CC(=O)Nc1cc2c(cc1[N+](=O)[O-])OC(C)(C)[C@@H](O)[C@@H]2OCCc1ccccc1 (relative stereo) [Synthesis example 2, Trans-6-acetylamino-3,4-dihydro-2,2-dimethyl-7-nitro-4-(2-phenylethoxy)-2H-1-benzopyran-3-ol]
- melting point: 123.5 to 127 °C
